Data set [1] has as its system Asc-2 fusion protein with the 4F2hc or rBAT. Nature of the data set: Transport of amino acids by Asc-2 expressed on the cell membrane as fusion protein with 4F2hc or rBAT (summary statement). The class given is cell-based, mouse. Particulars: Asc-2 fused with 4F2hc or rBAT. An excerpt: In addition, L-methionine, L-leucine, L-isoleucine, L-valine, L-phenylalanine, L-tyrosine, L-histidine, D-serine and D-alanine are also transported at a low affinity.

Data set [2] concerns the target T1, Asc-2-rBAT (Mus musculus, UniProt Q8VIE6+Q91WV7).
T1 construct: expressed in transfected cells; host or cells: oocyte injected with cRNA
T1 sequence (Q8VIE6+Q91WV7 with tags, fused parts or gaps): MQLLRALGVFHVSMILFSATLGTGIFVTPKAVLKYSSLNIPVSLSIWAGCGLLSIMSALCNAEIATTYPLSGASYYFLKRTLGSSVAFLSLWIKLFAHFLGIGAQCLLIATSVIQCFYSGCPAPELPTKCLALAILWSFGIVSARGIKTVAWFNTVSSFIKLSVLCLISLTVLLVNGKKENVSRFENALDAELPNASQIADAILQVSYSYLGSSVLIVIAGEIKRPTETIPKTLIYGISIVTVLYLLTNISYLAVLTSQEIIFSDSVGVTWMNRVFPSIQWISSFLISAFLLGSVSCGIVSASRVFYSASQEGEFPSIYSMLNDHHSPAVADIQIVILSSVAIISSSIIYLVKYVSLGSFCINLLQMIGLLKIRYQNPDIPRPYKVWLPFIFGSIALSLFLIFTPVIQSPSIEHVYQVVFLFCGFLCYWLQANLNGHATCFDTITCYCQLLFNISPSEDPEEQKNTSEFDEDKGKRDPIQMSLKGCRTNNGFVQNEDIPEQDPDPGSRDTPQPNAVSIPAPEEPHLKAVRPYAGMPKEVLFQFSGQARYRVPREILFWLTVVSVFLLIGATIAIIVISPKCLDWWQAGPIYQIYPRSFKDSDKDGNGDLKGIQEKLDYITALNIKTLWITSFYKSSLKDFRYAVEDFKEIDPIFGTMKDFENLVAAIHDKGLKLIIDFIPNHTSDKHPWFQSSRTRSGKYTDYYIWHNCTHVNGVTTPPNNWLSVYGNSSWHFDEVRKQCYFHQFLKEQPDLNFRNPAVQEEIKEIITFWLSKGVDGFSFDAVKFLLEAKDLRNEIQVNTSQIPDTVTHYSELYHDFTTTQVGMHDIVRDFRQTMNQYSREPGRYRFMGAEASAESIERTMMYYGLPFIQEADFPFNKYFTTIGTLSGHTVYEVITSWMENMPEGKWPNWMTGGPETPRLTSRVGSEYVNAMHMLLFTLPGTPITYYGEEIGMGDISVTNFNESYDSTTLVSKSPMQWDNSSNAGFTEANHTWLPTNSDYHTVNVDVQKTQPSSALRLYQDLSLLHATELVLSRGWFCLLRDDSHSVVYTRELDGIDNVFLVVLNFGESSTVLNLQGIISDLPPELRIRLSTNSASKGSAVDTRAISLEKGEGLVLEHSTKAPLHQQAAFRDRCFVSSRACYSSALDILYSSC
Nature of the data set: Michaelis-Menten test of amino acid uptake by Xenopus oocytes injected with Asc-2-rBAT fusion protein cRNA. The class given is cell-based. Particulars: Asc-2-rBAT expressed in oocyte; serine = 1.00; mean ± standard error, n=3. Here is the method:
(§1) A Michaelis-Menten pharmacodynamic test of a sodium-independent transporter Asc-2 transporting small-sized neutral amino acid was conducted. By investigating the change in the ratio of serine uptake by the difference in the substrate serine concentration, the Michaelis-Menten pharmacodynamic test of the Asc-2 was conducted.
(§2) The serine uptake test was conducted using the oocyte into which a cRNA of the gene of the fusion protein of the Asc-2 with the 4F2hc or the rBAT (Asc-2-4F2hc or Asc-2-rBAT) was injected in accordance with the method in Section (2) in Example 2 described above.
(§3) The Michaelis-Menten pharmacodynamic tests were conducted also for the amino acids, other than serine, which also serve as the substrates for the Asc-2, and the Km and Vmax values were calculated and are shown in the following Table 1.

For data set [3], the target named is T1, Asc-2-rBAT. The data set can be described thus: Inhibition test: 14C-serine uptake by oocytes expressing Asc-2-rBAT with added amino acids and analogues. The format is cell-based. Particulars: 14C-serine 5 μM; non-labeled compound 500 μM; Na+-free uptake solution. Here is the method:
In a serine uptake test in an oocyte into which a cRNA of the gene of the fusion protein of the Asc-2 with the rBAT (Asc-2-rBAT) was injected, the effect of amino acids and their analogues on the system was investigated.
The serine uptake test was conducted using the oocyte into which a cRNA of the gene of the fusion protein of the Asc-2 with the rBAT (Asc-2-rBAT) was injected in accordance with the method in Section (2) in Example 2 described above. Nevertheless, the test was conducted using as a sodium-free uptake solution (Na^+-free uptake solution), and the ^14C-serine (5 μM) uptake was measured in the presence or absence of various compounds (non-labeled) at 500 μM.

Data set [4] addresses T1, Asc-2-rBAT. The data set can be described thus: Uptake test of radiolabeled amino acids and analogues as substrates by oocytes expressing Asc-2-rBAT. The class given is cell-based. Particulars: Asc-2-rBAT oocyte; 14C compound as substrate. Here is the method: Using various amino acids and their analogues as substrates, the uptake by an oocyte into which a cRNA of the gene of the fusion protein of the Asc-2 with the rBAT (Asc-2-rBAT) had been injected was investigated.
The uptake test of various amino acids and their analogues was conducted using the oocyte into which a cRNA of the gene of the fusion protein of the Asc-2 with the rBAT (Asc-2-rBAT) had been injected in accordance with the method in Section (2) in Example 2 described above. Nevertheless, the test was conducted using as a substrate various compounds which were radiolabeled instead of ^14C-serine.

The next data set deals with T2, N[C@@H](CO)C(=O)O.
T2 construct: expressed in transfected cells; host or cells: oocyte injected with cRNA
Nature of the data set: Michaelis-Menten test of serine uptake by Xenopus oocytes injected with Asc-2-4F2hc fusion protein cRNA. The format is cell-based, mouse. Particulars: other: Asc-2-4F2hc expressed in oocyte. Here is the method: as §1, §2

Substrate in data set [5]: N[C@@H](CS)C(=O)O
The data set can be described thus: Michaelis-Menten test of amino acid uptake by Xenopus oocytes injected with Asc-2-rBAT fusion protein cRNA. The format is cell-based, mouse. Particulars: other: Asc-2-rBAT expressed in oocyte; mean ± standard error, n=3. Here is the method:
as §1, §2, §3

Substrate in data set [6]: CC(C)[C@H](N)C(=O)O
The description is as above. Particulars: other: Asc-2-rBAT expressed in oocyte; mean ± standard error, n=3. The class given is cell-based, mouse. Here is the method:
as §1, §2, §3

Substrate in data set [7]: CC(C)C[C@H](N)C(=O)O
Described as above. The format is cell-based, mouse. Particulars: other: Asc-2-rBAT expressed in oocyte; mean ± standard error, n=3. Here is the method:
as §1, §2, §3

Substrate in data set [8]: N[C@@H](CO)C(=O)O
The data set is described as above. The format is cell-based, mouse. Particulars: other: Asc-2-rBAT expressed in oocyte; mean ± standard error, n=3. Here is the method: as §1, §2, §3

Substrate in data set [9]: NCC(=O)O
Nature of the data set: cells, lysate or membranes. Particulars: other: Asc-2-rBAT expressed in oocyte; mean ± standard error, n=3.

Substrate in data set [10]: C[C@H](N)C(=O)O
Nature of the data set: cells, lysate or membranes. Particulars: other: Asc-2-rBAT expressed in oocyte; mean ± standard error, n=3.

Substrate in data set [11]: C[C@@H](O)[C@H](N)C(=O)O
Nature of the data set: cells, lysate or membranes. Particulars: other: Asc-2-rBAT expressed in oocyte; mean ± standard error, n=3.

With `N[C@@H](CS)C(=O)O` [L-Cysteine], in data set [1], the “Affinity of transport by Asc-2 fusion protein” value (“Affinity of transport” for short) is “high affinity”. Besides, the “Vmax (ratio to the Vmax of serine)” value on Asc-2-rBAT [2] is listed as 0.19 ± 0.03. The “Effect on Asc-2-rBAT-mediated 14C-serine uptake (cis-inhibition)” value (from here on “Effect … (cis-inhibition)”) on Asc-2-rBAT [3] was “inhibited potently”.
Consider `N[C@@H](Cc1ccccc1)C(=O)O` [L-phenylalanine], for which, in data set [1], the “Affinity of transport” value is reported as “low affinity”.
On the same count and under the same terms, under `C[C@@H](N)C(=O)O` [D-alanine] stands “low affinity”.
As to `N[C@@H](CO)C(=O)O` [L-Serine], the “Affinity of transport” value in data set [1] was “high affinity”. Further, the “Uptake of radiolabeled compound into the oocyte” value on Asc-2-rBAT [4] was “substantial uptake”. The “Vmax (ratio to the Vmax of serine)” value on Asc-2-rBAT [2] is listed as “(1.00)”. The “Effect … (cis-inhibition)” value at Asc-2-rBAT [3] is reported as “inhibited potently”.
The matching figures for `NCC(=O)O` [Glycine]: “high affinity”, “substantial uptake”, 1.18 ± 0.05 and “inhibited potently”.
As for `N[C@H](CO)C(=O)O` [D-serine], the “Affinity of transport” value in data set [1] is listed as “low affinity”.
For `C[C@@H](O)[C@H](N)C(=O)O` [L-Threonine], in [1], the “Affinity of transport” value is listed as “high affinity”. Besides, the “Uptake of radiolabeled compound into the oocyte” value at Asc-2-rBAT [4] is “substantial uptake”. Moreover, the “Vmax (ratio to the Vmax of serine)” value on Asc-2-rBAT [2] worked out at 0.53 ± 0.06. Besides, the “Effect … (cis-inhibition)” value at Asc-2-rBAT [3] is recorded as “inhibited potently”.
Consider Asc-2-4F2hc (Mus musculus), for which the Km in the data set with N[C@@H](CO)C(=O)O was 2.10 µM.
Consider `CSCC[C@H](N)C(=O)O` [L-methionine], for which the “Affinity of transport” value in [1] was “low affinity”.
On the same count and under the same terms, under `N[C@@H](Cc1c[nH]cn1)C(=O)O` [L-histidine] stands “low affinity”.
Take `CC(C)C[C@H](N)C(=O)O` [L-Leucine]: the “Affinity of transport” value in [1] is “low affinity”. Also, on Asc-2-rBAT [2], the “Vmax (ratio to the Vmax of serine)” value turned out to be 1.17 ± 0.11.
In the case of `CC(C)[C@H](N)C(=O)O` [L-Valine], in [1], the “Affinity of transport” value is listed as “low affinity”. Also, the “Vmax (ratio to the Vmax of serine)” value at Asc-2-rBAT [2] is on record as 0.79 ± 0.22.
In the case of `NCCCC(=O)O` [γ-aminoisoyric acid], the “Effect … (cis-inhibition)” value at Asc-2-rBAT [3] was “no effect”.
For `C[C@H](N)C(=O)O` [L-Alanine], in data set [1], the “Affinity of transport” value was “high affinity”. For the same molecule, on Asc-2-rBAT [4], the “Uptake of radiolabeled compound into the oocyte” value was “substantial uptake”. Further, the “Vmax (ratio to the Vmax of serine)” value at Asc-2-rBAT [2] is recorded as 0.83 ± 0.08. Also, the “Effect … (cis-inhibition)” value at Asc-2-rBAT [3] is given as “inhibited potently”.
On to α-aminoisometylic acid, for which the “Effect … (cis-inhibition)” value at Asc-2-rBAT [3] is on record as “no effect”.
`N[C@@H](Cc1ccc(O)cc1)C(=O)O` [L-tyrosine]: the “Affinity of transport” value in [1] is “low affinity”.
As for `CC[C@H](C)[C@H](N)C(=O)O` [L-isoleucine], the “Affinity of transport” value in [1] is recorded as “low affinity”.
`NC1(C(=O)O)CC2CCC1C2` (centres unmarked) [BCH, 2-amino-2-norbornane-carboxylic acid]: at Asc-2-rBAT [3], the “Effect … (cis-inhibition)” value is recorded as “no effect”.

B1: Asc-2-rBAT (Mus musculus) (protein)
chain: T1 sequence (Q8VIE6+Q91WV7 with tags, fused parts or gaps)
notes: expressed in transfected cells; host or cells: oocyte injected with cRNA
For B1, the Km came out at 3.13 ± 0.57 µM in data set [5]; 34.8 ± 10.6 µM in data set [6]; 39.6 ± 4.3 µM in data set [7]; 2.88 ± 0.37 µM in data set [8]; 2.15 ± 0.35 µM in data set [9]; 2.35 ± 0.30 µM in data set [10]. For the same molecule, the Km in [11] worked out at 2.72 ± 0.44 µM.

A word on the Km: it is the concentration of substrate that gives half-maximal velocity.

Values taken from patent US7307145B2, “Sodium-independent transporter transporting small-sized neutral amino acid, gene thereof and method of analyzing transporter function by constructing fused proteins enabling the specification of the function” (Japan Science and Technology Agency, priority 2001, dated 2007).
